Results as given in patent US8722849B2, “Polypeptides” (Novo Nordisk A/S, priority 2011, dated 2014).
Values after ≈ are worked out from the molar mass of the structure shown. Like-named read-outs stand apart in the source and are kept apart here. Starred links: 1 amine or outer side, 2 acyl side, 3 side chain; linkers in the order of their positions; H or OH if unused. Positions of bridges follow the written chain, without caps; N, C: chain ends. Residues, ends and D or L forms follow the SMILES beside them. Groups on a side chain read outwards from the residue. *: point of attachment. C20 diacid = O=C(O)CCCCCCCCCCCCCCCCCCC(=O)*; γGlu = O=C(O)[C@H](CCC(=O)[*:2])N[*:1]

Key:
[1] = biological target: T1, human calcitonin receptor (Homo sapiens, UniProt P30988); assay: Assay (II)a functional CRE-luciferase assay, human calcitonin receptor; format: cell-based; details: Table 7; human calcitonin (CTa) receptor
T1 construct: expressed in transfected cells; host or cells: BHK570
T1 sequence (P30988 25-474): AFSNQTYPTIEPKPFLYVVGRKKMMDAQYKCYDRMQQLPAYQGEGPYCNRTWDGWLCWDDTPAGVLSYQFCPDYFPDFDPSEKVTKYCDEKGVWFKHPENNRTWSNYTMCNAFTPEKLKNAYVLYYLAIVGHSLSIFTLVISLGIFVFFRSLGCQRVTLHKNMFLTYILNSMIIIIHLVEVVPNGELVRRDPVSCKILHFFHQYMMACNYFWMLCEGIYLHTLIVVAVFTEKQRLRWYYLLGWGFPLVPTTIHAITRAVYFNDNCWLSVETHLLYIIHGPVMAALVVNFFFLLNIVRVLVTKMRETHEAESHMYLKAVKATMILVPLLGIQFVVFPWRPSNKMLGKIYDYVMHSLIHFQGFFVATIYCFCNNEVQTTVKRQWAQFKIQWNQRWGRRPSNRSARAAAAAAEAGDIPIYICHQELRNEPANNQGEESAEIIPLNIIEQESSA

food intake = assay: Assay (I) efficacy testing on appetite (food intake), ad libitum fed rat model; format: in vivo, Sprague Dawley (SD) rats; details: 3 nmol/kg
In short: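 Sprague Dawley rats (200–250 g), single-housed under reversed light cycle with free food and water, got one ip, po or sc dose of 0.01–3 mg/kg just before lights-off. Individual food intake recorded hourly for 7 h, then at 24 h and sometimes 48 h; groups of 5–8, Grubbs outliers excluded.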

[2] = Assay (IV) determination of solubility; format: physicochemical
In short: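 Polypeptide in water (~500 nmol/ml stock) was mixed 1:1 with 100 mM buffers from pH 3.0 to 8.0 (glycylglycine pH 3.0–5.0; bistrispropane pH 6.0–8.0). After 18 hours at room temperature, samples were centrifuged and the polypeptide remaining in solution was quantified by HPLC.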

[3] = biological target: T2, human amylin receptor (amylin 3(a) receptor: human calcitonin receptor + RAMP-3) (Homo sapiens, UniProt O60896+P30988); assay: Assay (II)a functional CRE-luciferase assay, human amylin receptor; format: cell-based
T2 construct: expressed in transfected cells; host or cells: BHK570
T2 sequence (P30988 25-474): T1 sequence (P30988 25-474)
T2 sequence (O60896 24-148 partner): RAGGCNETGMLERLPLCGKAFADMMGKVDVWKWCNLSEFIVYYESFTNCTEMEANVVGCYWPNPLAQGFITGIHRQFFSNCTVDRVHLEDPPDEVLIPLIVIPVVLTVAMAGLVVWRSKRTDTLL

[4] = biological target: T3, rat amylin 3(a) receptor (rat calcitonin(a) receptor + rat RAMP3) (Rattus norvegicus, UniProt P32214+Q9JJ73); assay: Assay (II)b functional cAMP FlashPlate assay, rat amylin receptor; format: cell-based; details: Table 11
T3 construct: expressed in transfected cells; host or cells: BHK tk'ts 13
T3 sequence (P32214 25-479 isoform P32214-2 limits assumed): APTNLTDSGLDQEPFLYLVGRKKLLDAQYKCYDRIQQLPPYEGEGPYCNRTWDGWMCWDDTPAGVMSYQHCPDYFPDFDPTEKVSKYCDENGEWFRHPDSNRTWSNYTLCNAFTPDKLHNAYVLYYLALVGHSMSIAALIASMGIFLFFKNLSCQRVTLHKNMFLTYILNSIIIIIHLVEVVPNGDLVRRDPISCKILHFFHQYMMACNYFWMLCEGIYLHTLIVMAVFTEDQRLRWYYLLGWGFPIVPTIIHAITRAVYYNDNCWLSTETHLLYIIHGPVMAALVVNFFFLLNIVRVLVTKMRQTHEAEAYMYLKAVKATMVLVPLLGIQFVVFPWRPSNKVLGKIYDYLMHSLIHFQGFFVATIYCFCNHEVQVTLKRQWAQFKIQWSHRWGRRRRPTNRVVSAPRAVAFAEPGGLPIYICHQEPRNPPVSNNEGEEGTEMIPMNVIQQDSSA
T3 sequence (Q9JJ73 23-147 partner): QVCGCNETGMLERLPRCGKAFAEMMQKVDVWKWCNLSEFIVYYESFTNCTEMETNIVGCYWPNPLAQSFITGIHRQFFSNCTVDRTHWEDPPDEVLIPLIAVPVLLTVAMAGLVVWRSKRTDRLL
From the text: (§1) Assay (II)b—Rat Calcitonin and Rat Amylin Receptor Assays
(§2) Activation of calcitonin and amylin (coexpression of calcitonin receptor and receptor activity modifying proteins (RAMP)) receptors lead to increased intracellular concentrations of cAMP. In order to quantify the cAMP levels in transiently transfected cells the Adenylyl Cyclase Activation FlashPlate® Assay from […] was used. The basic principle of the FlashPlate® Assay is a competition between radioactive and non-radioactive cAMP generated by the cells for a fixed number of binding sites.
(§3) Construction of rat calcitonin(a)—and rat amylin 3(a)-receptor cells.
(§4) BHK tk'ts 13 cells were transiently transfected with either rat calcitonin (a) receptor or amylin 3 (a) receptor (rat calcitonin(a) receptor+ rat RAMP3) using FuGENE® 6 (ROCHE), according to the manufacturers recommendations.
(§5) 24 hours after transient transfection the cells (rat calcitonin(a)—or rat amylin 3(a)—receptor cells) were added (100.000 cells/well) to the 96 well FlashPlates® with samples or standard in FlashPlate stimulation buffer with IBMX and incubated for 30 min. Detection mix was created according to manufacturers protocol and scintillation measured after 3 h of incubation on TopCounter™ (Packard).

[5] = biological target: T4, rat calcitonin (a) receptor (Rattus norvegicus, UniProt P32214); assay: Assay (II)b functional cAMP FlashPlate assay, rat calcitonin receptor; format: cell-based; details: Table 11; read-out: CTa receptor rat EC50
T4 construct: expressed in transfected cells; host or cells: BHK tk'ts 13
T4 sequence (P32214 25-479 isoform P32214-2 limits assumed): T3 sequence (P32214 25-479 isoform P32214-2 limits assumed)
From the text: as §1, §2, §3, §4, §5

[6] = Assay (III) ThT fibrillation assay for physical stability; format: physicochemical
In short: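 Freshly prepared formulations, pH-adjusted, with 1 μM ThT; four or eight replicates incubated at 37 °C under 960 rpm orbital shaking. Fluorescence (ex 444/em 485 nm) read every 20 min; […]. Peptide concentration measured by RP-HPLC before and after the run.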

Row | EC50 [1] | solubility at 18 h ([2]; bistrispropane buffer, pH 6, pH 6.0, read-out: Solubility pH 6.0) | solubility at 18 h ([2]; bistrispropane buffer, pH 6.5, pH 6.5, read-out: Solubility pH 6.5) | solubility at 18 h ([2]; bistrispropane buffer, pH 7, pH 7.0, 18 hours at room temperature, Table 3, read-out: Solubility pH 7.0) | solubility at 18 h ([2]; bistrispropane buffer, pH 7, pH 7.0, read-out: Solubility pH 7.0) | solubility at 18 h ([2]; bistrispropane buffer, pH 7.5, pH 7.5, read-out: Solubility pH 7.5) | solubility at 18 h ([2]; bistrispropane buffer, pH 8, pH 8.0, read-out: Solubility pH 8.0) | solubility at 18 h ([2]; glycylglycine buffer, pH 3, pH 3.0, read-out: Solubility pH 3.0) | solubility at 18 h ([2]; glycylglycine buffer, pH 4, pH 4.0, 18 hours at room temperature, Table 2, read-out: Solubility pH 4.0) | solubility at 18 h ([2]; glycylglycine buffer, pH 4, pH 4.0, read-out: Solubility pH 4.0) | solubility at 18 h ([2]; glycylglycine buffer, pH 5, pH 5.0, read-out: Solubility pH 5.0) | EC50 ([3]; Table 2, BHK amylin 3(a)-receptor/CRE-luc cells) | EC50 [4] | EC50 [5] | EC50 ([3]; Table 6, human amylin receptor) | ThT pH 4.0 lag time ([6]; Table 8) | ThT pH 4.0 lag time ([6]; ThT fibrillation assay) | ThT pH 4.0 lag time (h) ([6]; ThT fibrillation assay) | Structure (SMILES) | Food intake reduction 0-24 h 3 nmol/kg (%) (food intake) | Food intake reduction 24-48 h 3 nmol/kg (%) (food intake)
1 | 0.222 nM | > 200 µM | > 200 µM | > 200 µM | > 200 µM | > 200 µM | > 200 µM | > 200 µM | > 200 µM | > 200 µM | 68 µM (≈ 289 µg/mL) | 0.164 nM |  |  |  |  |  |  | CC[C@H](C)[C@H](NC(=O)[C@@H]1CCCN1C(=O)CNC(=O)[C@H](Cc1ccccc1)NC(=O)[C@H](CC(N)=O)NC(=O)[C@H](CC(N)=O)NC(=O)[C@H](CO)NC(=O)[C@H](CO)NC(=O)[C@H](CCCNC(=N)N)NC(=O)[C@H](Cc1c[nH]cn1)NC(=O)[C@H](CC(C)C)NC(=O)[C@H](Cc1ccccc1)NC(=O)[C@H](CCC(=O)O)NC(=O)[C@H](C)NC(=O)[C@H](CC(C)C)NC(=O)[C@H](CCCNC(=N)N)NC(=O)[C@H](CCC(N)=O)NC(=O)[C@@H](NC(=O)[C@H](C)NC(=O)[C@@H]1CSSC[C@H](NC(=O)CC[C@H](NC(=O)CCCCCCCCCCCCCCCCCCC(=O)O)C(=O)O)C(=O)NCC(=O)N[C@@H]([C@@H](C)O)C(=O)N[C@@H](C)C(=O)N[C@@H]([C@@H](C)O)C(=O)N1)[C@@H](C)O)C(=O)N[C@@H](CC(C)C)C(=O)N1CCC[C@H]1C(=O)N1CCC[C@H]1C(=O)N[C@H](C(=O)N[C@@H](CCC(=O)O)C(=O)N[C@H](C(=O)NCC(=O)N[C@@H](CO)C(=O)NCC(=O)N[C@H](C(=O)N[C@@H](Cc1ccc(O)cc1)C(N)=O)[C@@H](C)O)C(C)C)[C@@H](C)O [Example 3, N-alpha-[(S)-4-Carboxy-4-(19-carboxynonadecanoylamino)butyryl]-[des1,Gly3,Glu14,His17,Arg18,Glu31,Gly35]-pramlintide] ({C20 diacid-γGlu}-CGTATCATQRLAEFLHRSSNNFGPILPPTEVGSGTY-NH2; disulfide 1-6 (inferred)) | 37% | 32%
2 | 0.672 nM |  |  |  |  |  |  |  |  |  |  |  | 4.51 nM | 1.75 nM | 1.44 nM |  |  |  | CC(C)C[C@H](NC(=O)[C@H](CCCNC(=N)N)NC(=O)[C@H](CCC(N)=O)NC(=O)[C@@H](NC(=O)[C@H](C)NC(=O)[C@@H]1CSSC[C@H](NC(=O)[C@H](CCC(=O)O)NC(=O)CC[C@H](NC(=O)CCCCCCCCCCCCCCCCCCC(=O)O)C(=O)O)C(=O)NCC(=O)N[C@@H]([C@@H](C)O)C(=O)N[C@@H](C)C(=O)N[C@@H]([C@@H](C)O)C(=O)N1)[C@@H](C)O)C(=O)N[C@@H](C)C(=O)N[C@@H](CCC(=O)O)C(=O)N[C@@H](Cc1ccccc1)C(=O)N[C@@H](CC(C)C)C(=O)N[C@H](C(=O)N[C@@H](CCCNC(=N)N)C(=O)N[C@@H](CO)C(=O)N[C@@H](CO)C(=O)N[C@@H](CO)C(=O)N[C@@H](CO)C(=O)N[C@@H](Cc1ccccc1)C(=O)NCC(=O)N[C@@H](C)C(=O)N1CCC[C@H]1C(=O)N[C@@H](CC(C)C)C(=O)N[C@@H](CO)C(=O)N[C@@H](CO)C(=O)N[C@H](C(=O)N[C@@H](CCC(=O)O)C(=O)N[C@H](C(=O)NCC(=O)N[C@@H](CO)C(=O)N[C@@H](CCCNC(=N)N)C(=O)N[C@H](C(=O)N[C@@H](Cc1ccc(O)cc1)C(N)=O)[C@@H](C)O)C(C)C)[C@@H](C)O)C(C)C [Example 24, N-alpha-[(S)-4-Carboxy-4-(19-carboxynonadecanoylamino)butyryl]-[Glu1,Gly3,Glu14,Arg18,Ser21,Ser22,Ala25,Pro26,Ser28,Ser29,Glu31,Arg35]-pramlintide] ({C20 diacid-γGlu}-ECGTATCATQRLAEFLVRSSSSFGAPLSSTEVGSRTY-NH2; disulfide 2-7 (inferred); C-terminus assumed) |  | 
3 |  |  |  |  |  |  |  |  |  |  |  |  |  |  |  | 25 h | 25 h | 25 h | CC[C@H](C)[C@H](NC(=O)[C@@H]1CCCN1C(=O)CNC(=O)[C@H](Cc1ccccc1)NC(=O)[C@H](CC(N)=O)NC(=O)[C@H](CC(N)=O)NC(=O)[C@H](CO)NC(=O)[C@H](CO)NC(=O)[C@H](Cc1c[nH]cn1)NC(=O)[C@H](Cc1c[nH]cn1)NC(=O)[C@H](CC(C)C)NC(=O)[C@H](Cc1ccccc1)NC(=O)[C@H](CCC(=O)O)NC(=O)[C@H](C)NC(=O)[C@H](CC(C)C)NC(=O)[C@H](CCCNC(=N)N)NC(=O)[C@H](CCC(N)=O)NC(=O)[C@@H](NC(=O)[C@H](C)NC(=O)[C@@H]1CSSC[C@H](NC(=O)[C@@H](N)CCCCNC(=O)CC[C@H](NC(=O)CCCCCCCCCCCCCCCCCCC(=O)O)C(=O)O)C(=O)N[C@@H](CC(N)=O)C(=O)N[C@@H]([C@@H](C)O)C(=O)N[C@@H](C)C(=O)N[C@@H]([C@@H](C)O)C(=O)N1)[C@@H](C)O)C(=O)N[C@@H](CC(C)C)C(=O)N1CCC[C@H]1C(=O)N1CCC[C@H]1C(=O)N[C@H](C(=O)N[C@@H](CC(N)=O)C(=O)N[C@H](C(=O)NCC(=O)N[C@@H](CO)C(=O)N[C@@H](Cc1c[nH]cn1)C(=O)N[C@H](C(=O)N[C@@H](Cc1ccc(O)cc1)C(N)=O)[C@@H](C)O)C(C)C)[C@@H](C)O [Example 87, N-epsilon1-[(S)-4-Carboxy-4-(19-carboxynonadecanoylamino)butyryl]-[Glu14,His17,His35]-pramlintide] (H-K([γGlu-C20 diacid])CNTATCATQRLAEFLHHSSNNFGPILPPTNVGSHTY-NH2; disulfide 2-7 (inferred)) | 66% | 47%
